# Source: patent US7709498B2, “Quinoline derivatives as antibacterial agents” (Janssen Pharmaceutica N.V., priority 2005, dated 2010)
# How the values were obtained:
# Format in all cases: cell-based
# [1] = test system: Listeria monocytogenes (ATCC49594); assay: Microtitre plate assay, IC90 determination, LMO 49594; settings: 90% inhibitory concentration for bacterial growth, 37° C., resazurin fluorescence; for IC90 (μg/ml) LMO 49594: 24 hours; for IC90: Listeria monocytogenes, ATCC49594, 24 h, read-out: IC90 (μg/ml) LMO 49594
# Method: (§1) The bacteria used in this study were grown overnight in flasks containing 100 ml Mueller-Hinton Broth (Becton Dickinson—cat. no. 275730) in sterile de-ionized water, with shaking, at 37° C. Stocks (0.5 ml/tube) were stored at −70° C. until use. Bacteria titrations were performed in microtiter plates to detect the TCID50, in which the TCID50 represents the dilution that gives rise to bacterial growth in 50% of inoculated cultures.
# (§2) In general, an inoculum level of approximately 100 TCID50 was used for susceptibility testing.
# (§3) Flat-bottom, sterile 96-well plastic microtiter plates were filled with 180 μl of sterile deionized water, supplemented with 0.25% BSA. Subsequently, stock solutions (7.8× final test concentration) of compounds were added in 45 μl volumes in column 2. Serial five-fold dilutions (45 μl in 180 μl) were made directly in the microtiter plates from column 2 to reach column 11. Untreated control samples with (column 1) and without (column 12) inoculum were included in each microtiter plate. Depending on the bacteria type, approximately 10 to 60 CFU per well of bacteria inoculum (100 TCID50), in a volume of 100 μl in 2.8× Mueller-Hinton broth medium, was added to the rows A to H, except column 12. The same volume of broth medium without inoculum was added to column 12 in row A to H. The cultures were incubated at 37° C. for 24 hours under a normal atmosphere (incubator with open air valve and continuous ventilation). At the end of incubation, one day after inoculation, the bacterial growth was quantitated fluorometrically. Therefore resazurin (0.6 mg/ml) was added in a volume of 20 μl to all wells 3 hours after inoculation, and the plates were re-incubated overnight. A change in colour from blue to pink indicated the growth of bacteria. The fluorescence was read in a computer-controlled fluorometer (Cytofluor Biosearch) at an excitation wavelength of 530 nm and an emission wavelength of 590 nm. The % growth inhibition achieved by the compounds was calculated according to standard methods. The IC90 (expressed in μg/ml) was defined as the 90% inhibitory concentration for bacterial growth.
# (§4) BSU 3639 means Bacillus subtilis (ATCC43639); ECO 25922 means Escherichia coli (ATCC25922); EFA 14506 means Enterococcus faecalis (ATCC14506); EFA 29212 means Enterococcus faecalis (ATCC29212); LMO 49594 means Listeria monocytogenes (ATCC49594); PAE 27853 means Pseudomonas aeruginosa (ATCC27853); SMU 33402 means Streptococcus mutans (ATCC33402); SPN 6305 means Streptococcus pneumoniae (ATCC6305); SPY 8668 means Streptococcus pyogens (ATCC8668); STA 43300 means Staphylococcus aureus (ATCC43300); STA 25923 means Staphylococcus aureus (ATCC25923); STA 29213 means Staphylococcus aureus (ATCC29213); STA RMETH means methicilline resistant Staphylococcus aureus (MRSA) (a clinical isolate from the University of Antwerp). ATCC means American type tissue culture.
# [2] = test system: Streptococcus mutans (ATCC33402); assay: Microtitre plate assay, IC90 determination, SMU 33402; settings: 90% inhibitory concentration for bacterial growth, 37° C., resazurin fluorescence; for IC90 (μg/ml) SMU 33402: 24 hours; for IC90: Streptococcus mutans, ATCC33402, 24 h, read-out: IC90 (μg/ml) SMU 33402
# Method: as §1, §2, §3, §4
# [3] = test system: Streptococcus pneumoniae (ATCC6305); assay: Microtitre plate assay, IC90 determination, SPN 6305; settings: 90% inhibitory concentration for bacterial growth, 37° C., resazurin fluorescence; for IC90 (μg/ml) SPN 6305: 24 hours; for IC90: Streptococcus pneumoniae, ATCC6305, 24 h, read-out: IC90 (μg/ml) SPN 6305
# Method: as §1, §2, §3, §4
# [4] = test system: Streptococcus pyogens (ATCC8668); assay: Microtitre plate assay, IC90 determination, SPY 8668; settings: 90% inhibitory concentration for bacterial growth, 37° C., resazurin fluorescence; for IC90 (μg/ml) SPY 8668: 24 hours; for IC90: Streptococcus, ATCC8668, 24 h, read-out: IC90 (μg/ml) SPY 8668
# Method: as §1, §2, §3, §4
SMILES,IC90 (μg/ml) SPN 6305 [3],IC90 [3],further results
COc1nc2ccc(Br)cc2cc1C(c1ccccc1)C(O)(CCN1CCN(C)CC1)c1cccc2ccccc12 (racemic) [Compound 149],–,–,IC90 (μg/ml) LMO 49594 [1]: 12.2 µg/mL
COCCOc1nc2ccc(Br)cc2cc1C(c1ccccc1)C(O)(CCN(C)C)c1cccc(F)c1 (racemic) [Compound 165],14.3 µg/mL,–,IC90 (μg/ml) SMU 33402 [2]: 14.3 µg/mL; IC90 (μg/ml) SPY 8668 [4]: 11.3 µg/mL
COc1nc2cc(C)c(Br)cc2cc1C(c1ccccc1)C(O)(CCN(C)C)c1cccc(F)c1 (racemic) [Compound 215],–,–,IC90 (μg/ml) LMO 49594 [1]: 10.7 µg/mL
COc1nc2ccc(Br)cc2cc1C(c1ccccc1)C(O)(CCN(C)C)c1cc(F)cc(F)c1 (centres unmarked) [Compound 116],–,–,IC90 [1]: 10.8 µg/mL
CCN(CCC(O)(c1ccc(F)cc1F)C(c1ccccc1)c1cc2cc(Br)ccc2nc1OC)Cc1ccccc1 (racemic) [Compound C],15.9 µg/mL,–,–
CCN(CC)CCC(O)(c1ccccc1)C(c1ccccc1)c1cc2cc(Br)ccc2nc1OC (centres unmarked) [Compound 19],13.4 µg/mL,–,–
COc1nc2ccc(Br)cc2cc1C(c1ccc(F)cc1)C(O)(CCN(C)C)c1cccc2ccccc12 (centres unmarked) [Compound 206],–,12.8 µg/mL,–
CCOc1nc2ccc(Br)cc2cc1C(c1ccccc1)C(O)(CCN(C)C)c1ccccc1 (centres unmarked) [Compound 5],–,–,IC90 (μg/ml) SMU 33402 [2]: 10.4 µg/mL
COc1nc2ccc(Br)cc2cc1C(c1ccccc1)C(O)(CCN(C)C)c1cccc(F)c1F (centres unmarked) [Compound 113],–,13.6 µg/mL,IC90 [1]: 10.8 µg/mL
COc1nc2ccc(Br)cc2cc1C(c1ccccc1)C(O)(CCN(C)C)c1ccc2c3c(cccc13)CC2 (centres unmarked) [Compound I],–,11.6 µg/mL,–
COc1nc2ccc(Br)cc2cc1C(c1ccccc1)C(O)(CCN(C)C)c1cc(F)ccc1F (centres unmarked) [Compound 67],–,13.6 µg/mL,IC90 [1]: 10.8 µg/mL
COc1nc2ccc(Br)cc2cc1C(c1ccccc1)C(O)(CCN(C)C)c1ccsc1 (centres unmarked) [Compound 24],–,10.2 µg/mL,–
"COc1nc2ccc(Br)cc2cc1C(c1ccccc1)C(O)(CCN(C)C)c1ccccc1 (single isomer, unassigned) [F]",25.3 µg/mL,–,IC90 (μg/ml) SMU 33402 [2]: 22.6 µg/mL; IC90 (μg/ml) SPY 8668 [4]: 22.6 µg/mL
COc1nc2cc(C)c(Br)cc2cc1C(c1ccccc1)C(O)(CCN(C)C)c1cc(F)cc(F)c1 (racemic) [Compound 227],5.0 µg/mL,–,–
COc1nc2ccc(Br)cc2cc1C(c1ccccc1)C(O)(CCN1CCOCC1)c1ccc2ccccc2c1 (racemic) [Compound 140],–,–,IC90 (μg/ml) SMU 33402 [2]: 9.5 µg/mL
CNCCC(O)(c1ccccc1)C(c1ccccc1)c1cc2cc(Br)ccc2nc1OC (centres unmarked) [Compound D],–,4.9 µg/mL,–
COc1nc2ccc(Br)cc2cc1C(c1ccccc1)C(O)(CCN1CCOCC1)c1ccc2ccccc2c1 (racemic) [Compound 139],26.7 µg/mL,–,IC90 (μg/ml) SMU 33402 [2]: 18.9 µg/mL
COc1nc2ccc(Br)cc2cc1C(c1ccccc1)C(O)(CCN(C)C)c1cccc(F)c1 (centres unmarked) [Compound 38],–,–,IC90 (μg/ml) LMO 49594 [1]: 10.4 µg/mL
COc1nc2ccc(Br)cc2cc1C(c1ccccc1)C(O)(CCN(C)C)c1cccs1 (centres unmarked) [Compound 20],2.6 µg/mL,–,–
COc1ccc2cc(C(O)(CCN(C)C)C(c3ccccc3)c3cc4cc(Br)ccc4nc3OC)ccc2c1 (centres unmarked) [Compound 163],–,14.7 µg/mL,–
COc1nc2ccc(Br)cc2cc1C(c1ccccc1)C(O)(CCN1CCSCC1)c1ccccc1 (racemic) [Compound 55],0.6 µg/mL,–,–

SMILES,IC90 (μg/ml) SPN 6305 [3],IC90 [3],further results
COc1nc2cc(C)c(C)cc2cc1C(c1ccccc1)C(O)(CCN(C)C)c1cccc2ccccc12 (racemic) [Compound 229],5.0 µg/mL,–,IC90 (μg/ml) SMU 33402 [2]: 22.5 µg/mL
COc1nc2ccc(Br)cc2cc1C(c1ccccc1)C(O)(CCN1CCCC1)c1ccc2ccccc2c1 (racemic) [Compound 171],–,–,IC90 (μg/ml) SPY 8668 [4]: 11.6 µg/mL
COc1nc2ccc(Br)cc2cc1C(c1ccccc1)C(O)(CCN(C)C)c1ccc2c(Br)cccc2c1 (centres unmarked) [Compound 130],–,–,IC90 [2]: 10.1 µg/mL
COc1nc2ccc(Br)cc2cc1C(c1ccccc1)C(O)(CCN(C)C)c1cccc(F)c1 (centres unmarked) [Compound 108],13.1 µg/mL,–,–
COc1nc2ccc(-c3ccco3)cc2cc1C(c1ccccc1)C(O)(CCN(C)C)c1cccc2ccccc12 (centres unmarked) [Compound H],–,13.6 µg/mL,IC90 [1]: 13.6 µg/mL
COc1nc2ccc(Br)cc2cc1C(c1ccc(Cl)cc1)C(O)(CCN(C)C)c1ccccc1 (centres unmarked) [Compound 37],12.1 µg/mL,–,–
COc1nc2ccc(Br)cc2cc1C(c1ccc(C)cc1)C(O)(CCN(C)C)c1cccc2ccccc12 (centres unmarked) [Compound 72],–,14.3 µg/mL,IC90 [2]: 9 µg/mL; IC90 [4]: 11.4 µg/mL
COc1nc2ccc(Br)cc2cc1C(c1ccccc1)C(O)(CCN1CCCCC1)c1ccccc1 (centres unmarked) [Compound 47],6.9 µg/mL,–,–
COc1nc2ccc(Br)cc2cc1C(c1ccccc1)C(O)(CCN1CCCCC1)c1ccc2ccccc2c1 (centres unmarked) [Compound 128],–,–,IC90 [1]: 9.4 µg/mL
COc1nc2ccc(Br)cc2cc1C(c1ccccc1)C(O)(CCn1cncn1)c1ccccc1 (racemic) [Compound 53],5.9 µg/mL,–,–
COc1nc2ccc(Br)cc2cc1C(c1ccccc1)C(O)(CCN1CCCC1)c1ccc2ccccc2c1 (centres unmarked) [Compound 170],–,26 µg/mL,–
COc1nc2ccccc2cc1C(c1ccccc1)C(O)(CCN(C)C)c1ccccc1 (centres unmarked) [Compound 41],–,–,IC90 [1]: 17 µg/mL
COc1nc2ccc(Br)cc2cc1C(c1ccccc1)C(O)(CCN(C)C)c1ccc(F)c(F)c1 (centres unmarked) [Compound 196],–,–,IC90 [2]: 10.8 µg/mL
COc1nc2ccc(Br)cc2cc1C(c1ccccc1)C(O)(CCN(C)C)c1ccccc1 (centres unmarked) [Compound 4],–,12.7 µg/mL,–
COc1nc2ccc(Br)cc2cc1C(c1ccc(Cl)cc1)C(O)(CCN(C)C)c1cccc2ccccc12 (centres unmarked) [Compound 73],–,–,IC90 [2]: 11.8 µg/mL; IC90 [4]: 14.8 µg/mL
COc1nc2ccc(Br)cc2cc1C(c1ccccc1)C(O)(CC[N+](C)(C)[O-])c1ccccc1 (racemic) [Compound 58],–,–,IC90 (μg/ml) SMU 33402 [2]: 5.9 µg/mL; IC90 (μg/ml) SPY 8668 [4]: 8.3 µg/mL
COc1nc2ccc(-c3ccco3)cc2cc1C(c1ccccc1)C(O)(CCN(C)C)c1cccc(F)c1 (centres unmarked) [Compound 174],–,–,IC90 [1]: 10.2 µg/mL
COc1nc2ccc(Br)cc2cc1C(c1ccccc1)C(O)(CCN1CCN(c2ncccn2)CC1)c1ccc2ccccc2c1 (centres unmarked) [Compound 209],–,15.1 µg/mL,–
COc1nc2ccc(Br)cc2cc1C(c1ccccc1)C(O)(CCN(C)C)c1ccc(Cl)cc1 (centres unmarked) [Compound 17],–,0.5 µg/mL,IC90 [1]: 10.8 µg/mL
COc1nc2cc(C)c(Br)cc2cc1C(c1ccccc1)C(O)(CCN(C)C)c1cccc2ccccc12 (racemic) [Compound 226],14.3 µg/mL,–,–
COc1nc2ccc(Br)cc2cc1C(c1ccccc1)C(O)(CCN1CCCCC1)c1ccc2cc(Br)ccc2c1 (centres unmarked) [Compound 166],–,16.9 µg/mL,–
